Tests used:
[1] = system: RAW264.7; experiment: Cytotoxicity against mouse RAW264.7 cells at 50 uM after 48 hrs by MTT assay; format: cell-based; details: raw264.7, 48 h
[2] = system: RAW264.7; experiment: Inhibition of LPS-induced NO production in mouse RAW264.7 cells preincubated for 30 mins followed by LPS stimulation and measured after 24 hrs by Griess assay; format: functional, cell-based

| Compound | Activity [1] | IC50 [2] [µM] |
| --- | --- | --- |
| COC(=O)[C@@]1(CO)CCCC2=C1C(=O)C[C@@H](C)[C@]21C[C@@H](c2ccoc2)OC1=O | Non-Toxic | > 50 |
| COC(=O)C1(C(=O)OC)CCCC2=C1[C@@H](OC(C)=O)C[C@@H](C)[C@]21C[C@@H](c2ccoc2)OC1=O | Non-Toxic | > 50 |
| CO[C@@]12C[C@@H](C)[C@]3(C[C@@H](c4ccoc4)OC3=O)[C@@H]3CCCC(=C31)C(=O)O2 | Non-Toxic | > 50 |
| C[C@@H]1C[C@@H](O)C2=C(C[C@@H]3C[C@]2(C)C(=O)O3)[C@@]12C[C@@H](c1ccoc1)OC2=O | Non-Toxic | > 50 |
| C[C@@H]1C[C@H]2OC(=O)C3=C2[C@@H](CCC3)[C@@]12C[C@@H](c1ccoc1)OC2=O | Non-Toxic | > 50 |
| COC(=O)[C@@]1(CO)CCCC2=C1[C@@H](OC(C)=O)C[C@@H](C)[C@]21C[C@@H](c2ccoc2)OC1=O | Non-Toxic | > 50 |
| COC(=O)[C@]1(C)CCCC2=C1CC[C@@H](C)[C@]2(C)CCC1=CC(=O)OC1 | Non-Toxic | > 50 |
| CO[C@@H]1C[C@@H](C)[C@](C)(CC(=O)c2ccoc2)C2=C1[C@]1(C)C[C@H](C2)OC1=O | Non-Toxic | > 50 |
| COC(=O)C1(C(=O)OC)C2=C(CC[C@@H]1OC(C)=O)[C@@]1(C[C@@H](c3ccoc3)OC1=O)[C@H](C)CC2=O | Non-Toxic | > 50 |
| COC(=O)C1(C(=O)OC)CCCC2=C1[C@@H]1C[C@@H](C)[C@@]2(CC(=O)c2ccoc2)C(=O)O1 | Non-Toxic | > 50 |
| COC(=O)[C@]1(C)CCCC2=C1C(=O)C[C@@H](C)[C@]2(C)CCC1=CC(=O)OC1 | Non-Toxic | > 50 |
| COC(=O)[C@]1(C)C2=C(CC[C@H]1O)[C@@]1(C[C@@H](c3ccoc3)OC1=O)[C@H](C)C[C@@H]2OC(C)=O | Non-Toxic | > 50 |
| C[C@@H]1C[C@@H]2OC(=O)[C@]3(O)CCCC(=C23)[C@@]12C[C@@H](c1ccoc1)OC2=O | Non-Toxic | > 50 |
| COC(=O)[C@@]1(COC(C)=O)CCCC2=C1[C@@H](O)C[C@@H](C)[C@]21C[C@@H](c2ccoc2)OC1=O | Non-Toxic | > 50 |
| COC(=O)C1(C(=O)OC)CCCC2=C(CC(=O)c3ccoc3)[C@H](C)CC=C21 | Non-Toxic | > 50 |
| COC(=O)[C@@]1(CO)CCCC2=C1[C@@H](O)C[C@@H](C)[C@]21C[C@@H](c2ccoc2)OC1=O | Non-Toxic | > 50 |

| Compound | Activity [1] | IC50 [2] [µM] |
| --- | --- | --- |
| COC(=O)[C@@]1(C)CC(=O)C=C2[C@@](C)(CC(=O)c3ccoc3)[C@H](C)CC[C@]21O | Non-Toxic | > 50 |
| C[C@@H]1C[C@H]2OC(=O)[C@@]3(CO)CCCC(=C23)[C@@]12C[C@@H](c1ccoc1)OC2=O | Non-Toxic | > 50 |
| COC(=O)[C@@]1(C)C2=C(CC[C@H]1OC(C)=O)[C@@]1(C[C@@H](c3ccoc3)OC1=O)[C@H](C)CC2=O | Non-Toxic | > 50 |
| COC(=O)[C@@]1(COC(C)=O)CCCC2=C1CC[C@@H](C)[C@]21C[C@@H](c2ccoc2)OC1=O | Non-Toxic | > 50 |
| COC(=O)[C@@]1(C)CCCC2=C1[C@@H](OC(C)=O)C[C@@H](C)[C@]21C[C@@H](c2ccoc2)OC1=O | Non-Toxic | > 50 |
| COC(=O)[C@@]1(C)C2=C(CC[C@H]1O)[C@@]1(C[C@@H](c3ccoc3)OC1=O)[C@H](C)CC2 | Non-Toxic | > 50 |
| COC(=O)[C@@]1(C)CCCC2=C1[C@@H](O)C[C@@H](C)[C@]21C[C@@H](c2ccoc2)OC1=O | Non-Toxic | > 50 |
| C[C@@H]1CCC2=C(C[C@@H]3C[C@]2(C)C(=O)O3)[C@@]12C=C(c1ccoc1)OC2=O | Non-Toxic | > 50 |
| C[C@@H]1C[C@@H]2OC(=O)C3=C2[C@](O)(CCC3)[C@@]12C[C@@H](c1ccoc1)OC2=O | Non-Toxic | > 50 |
| Cc1cc(O)cc2c1CC[C@@H](C)[C@]2(C)CC(=O)c1ccoc1 | Non-Toxic | 23.7 |
| CC1=CC(=O)C2=C3[C@@]1(O)CC[C@@H](C)[C@]3(C)C=C2c1ccoc1 | Non-Toxic | 17.2 |
| COC(=O)[C@@]1(C)CC(=O)C2=C3[C@@](C)(CC2=O)[C@H](C)CC[C@]31O | Non-Toxic | > 50 |
| C[C@@H]1CCC2=C(C[C@H]3C[C@]2(C)C(=O)O3)[C@@]1(C)CC(=O)c1ccoc1 | Non-Toxic | > 50 |
| COC(=O)[C@@]1(C)C2=C(CC[C@H]1OC(C)=O)[C@@]1(C[C@@H](c3ccoc3)OC1=O)[C@H](C)CC2 [CRASSIFOLIN F] | Non-Toxic | > 50 |
| O=c1c(O)c(-c2ccc(O)c(O)c2)oc2cc(O)cc(O)c12 [QUERCETIN] |  | 15.1 |
| C[C@@H]1C[C@@H]2OC(=O)C3=C2[C@H](CCC3)[C@@]12C[C@@H](c1ccoc1)OC2=O [TEUCVIN] | Non-Toxic | > 50 |
